Laboratory results: patent US20130012577A1, “PROCESS TO OBTAIN A STANDARDIZED EXTRACT OF QUERCETIN AND 3-O-METHYLQUERCETIN FROM INFLORESCENCES OF MACELA-DO-CAMPO, A COSMETIC, PHARMACEUTICAL AND VETERINARY COMPOSITION CONTAINING EXTRACT OF MACELA-DO-CAMPO, THE USE OF THIS EXTRACT AND THE METHOD OF APPLICATION OF THE AFORESAID EXTRACT” (priority 2009, published 2013)
Converted amounts (≈) assume the structure as drawn.

Assays:
P. acnes = test: Bioautography of Propionibacterium acnes (HPTLC separation, inoculum overlay); assay type: cell-based; conditions: incubation 72 hours, revealed with TTC
Description: Bioautographic trials were conducted to determine the classes of the compounds present in the extract of inflorescence of Achyrocline satureioides that perform the anti-bacterial activity against Propionibacterium acnes. The bioautography consists of the chromatographic separation of the compounds by HPTLC and the subsequent application of the inoculation to the culture medium over the chromatographic plate.

PDE4 = conditions: cited from earlier work
[1] = tested on: smooth muscle of guinea pig tracheas; conditions: guinea pig tracheas precontracted with histamine, carbachol, KCl and forskolin; cited from earlier work
[2] = tested on: smooth muscle of guinea pig corpus cavernosum; conditions: cited from earlier work
PDE3 = conditions: cited from earlier work
PDE 5A = PDE 5A (Homo sapiens, UniProt O76074); conditions: cited from earlier work
[3] = Antioxidant activity by DPPH; assay type: biochemical
Description: Tests were performed for the antioxidant activity by DPPH of the dried extract of macela-do-campo obtained by spray dryer. […] Trolox (a derivative of vitamin E sold by Hoffman LaRoche) was used as a standard of the aforesaid test and has its IC50 of antioxidant activity obtained with 0.005 mg/ml. Therefore, it can be concluded that the dried extract of macela-do-campo has extremely high antioxidant effectiveness, only 4 times less than Trolox.

Propionibacterium acnes = test: Minimum Inhibitory Concentration (MIC), microplate dilution; assay type: cell-based; conditions: Cutibacterium acnes, anaerobiosis, 35° C., 96 hours, mg/ml of sample
Description: Tests were carried out for evaluating the minimum inhibitory concentrations of 3 batches of the dried extract of inflorescences of macela-do-campo produced in accordance with the process of the present invention against Propionibacterium acnes.
The procedure used for this test is the following:
Preparation of inoculum: the microorganism to be used in testing was replicated to a glass flask containing 10 ml of sterilized culture medium broth (TSB); • the flaks were incubated at 35° C.+/−2° C. for 24 hours; • the above procedure was repeated for 2 consecutive days; • 100 microliters of TSB broth were distributed in a microplate with the exception of column 1; • column 1 was inoculated with 200 microliters of the sample to be tested previously prepared and solubilized; • dilutions were carried out by transferring 100 microliters of column 1 to column 2 and 100 microliters of column 2 to column 3 and thus successively until column 10. […] The plate in which Propionibacterium acnes was inoculated was incubated under anaerobosis at 35° C.+/−2° C. for 96 hours; • after the incubation period the reading was carried out, thus observing the turbidity of the wells; • the samples were weighed and diluted in the vehicle ethanol 96° GL/distilled water (1:1) according to the weights and volumes below: […]

Row | SMILES | anti-microbial activity in bioautography (inhibition halos) (P. acnes) | IC50 (PDE4) [µM] | relaxation of smooth muscle of tracheas [1] | relaxant activity in smooth muscle of corpus cavernosum [2] | IC50 (PDE3) [µM] | IC50 (PDE 5A) [µM] | IC50 of the antioxidant activity [3] [mg/L] | MIC (Propionibacterium acnes) [mg/L]
1 | COc1c(-c2ccc(O)c(O)c2)oc2cc(O)cc(O)c2c1=O [3-O-methylquercetin] | main ingredients responsible for the anti-microbial activity | 28.5 | capable of provoking the relaxation of the smooth muscle | show the same relaxant activity | 1.6 | 86.9 |  | 
2 | Cc1c(C)c2c(c(C)c1O)CCC(C)(C(=O)O)O2 (centres unmarked) [Trolox] |  |  |  |  |  |  | 5 | 
3 | O=c1c(O)c(-c2ccc(O)c(O)c2)oc2cc(O)cc(O)c12 [quercetin] | main ingredients responsible for the anti-microbial activity |  |  | show the same relaxant activity |  | 1.9 |  | 36.4 (≈ 120 µM)
